The Tmax is the time at which the peak concentration occurs. What is called half-life is the time needed for the level to fall by half in the phase considered. A high value points to slow decline. By bioavailability is commonly meant the share of a dose that reaches the circulation, judged against a reference dose that is usually intravenous. A higher bioavailability goes with good availability.

This is an account of results in ChEMBL document CHEMBL5113369, “A review on the structure and pharmacological activity of phenylethanoid glycosides” (Eur J Med Chem, 2021).

Each structure is given as a SMILES string.

Assay type in all cases: ADME, organism-based, Canis lupus familiaris
Common to all, as to settings: in vivo, dose 10-40 mg/kg

The nature of data set [1]: Tmax in Beagle dog at 10 to 40 mg/kg, po measured up to 8 hrs by LC-MS/MS analysis.
Data set [2] is described as follows: Half life in Beagle dog at 10 to 40 mg/kg, po measured up to 8 hrs by LC-MS/MS analysis.
Data set [3] can be described thus: Oral bioavailability in Beagle dog at 10 to 40 mg/kg measured up to 8 hrs by LC-MS/MS analysis.

For the molecule `C[C@@H]1O[C@@H](O[C@@H]2[C@@H](O)[C@H](OCCc3ccc(O)c(O)c3)O[C@H](CO)[C@H]2OC(=O)/C=C/c2ccc(O)c(O)c2)[C@H](O)[C@H](O)[C@H]1O` [ACETOSIDE], the time of peak concentration (Tmax) in data set [1] is 0.5 h. For the same molecule, the half-life in data set [2] turned out to be 1.5 h. This molecule also yielded a bioavailability in data set [3] of 4%.
